Key:
[1] = test system: non-transformed African Green Monkey kidney epithelial (BSC-1) cells; experiment: Mitogenic response of BSC-1 cells (cell number counted in a hemocytometer after 4 days); format: cell-based; details: for mitogenic activity of excipient without NX001: 20 mM histidine or 8.8% sucrose, alone or together, diluted 160-fold, FIG. 3A
Experimental: Various lots of unformulated NX001 can be assayed for bioactivity using the mitogenic response of BSC-1 cells as an indicator (see, for instance, U.S. Pat. No. 6,096,706). In this example, two lots of NX001 peptide (Lots PPL-WGF0501A and lot PPL WGF0801) were tested. Varying amounts of the two peptides were added to near-confluent monolayers of non-transformed African Green Monkey kidney epithelial (BSC-1) cells, and the number of cells was counted in a hemocytometer 4 days later.
Each formulation was reconstituted with 1.0 mL water, and was swirled to dissolve the contents. Each solution was then be diluted to 0.125 mg/mL with water. Aliquots of 8 μL each was added to triplicate wells of BSC-1 cells to yield final concentrations of NX001 from 0.05 to 0.4 μg/mL. The plates were incubated at 37° C. for 4 days, and then cells was counted. A third lot of NX001 (PPL-WGF0801) that is not formulated and not lyophilized was dissolved and diluted in water and was used as positive control.
To investigate whether excipients alone or in combination might modify the mitogenic activity, NX001 was added to 20 mM histidine, 8.8% sucrose or the combination and the solutions were diluted to 0.125 mg/mL. Each of the near confluent monolayers of BSC-1 cells in 5 ml DMEM containing 40 μM biotin and 0.5% calf serum received either 8 μl of water, 8 μl of an excipient, or 0.2 μg/ml of PPL-WGF0801 in a final volume of 8 μl of 8.8% sucrose or 20 mM histidine (pH 5.5), or both.
An experiment to determine whether the pH of formulated NX001 affected bioactivity was performed. In this experiment, NX001 (lot PPLWGF0801) was used as a positive control and was dissolved in water to […], diluted 1/160 with water to 0.125 mg/mL, and 8 μL was added to assay plates to a final concentration of 0.2 μg/mL. (see FIG. 4, bar 1).
NX001 (lot PPLWGF0801) was dissolved to 20 mg/mL in either water or PBS, diluted to 0.125 mg/mL in water or PBS as specified, and 8 μL was then added to assay plates to a final concentration of […].
To insure that formulation of NX001 yielded a solution for injection that was as physiological as possible, the formulation of NX001 was adjusted to provide a neutral, iso-osmotic preparation. The adjusted formulation contains 20 mg/mL NX001, 20 mM histidine, 200 mM sucrose at a pH of 7.25, or 80 mg/mL NX001, 20 mM histidine, 15 mM sucrose, pH 7.25. Vials of formulated and lyophilized NX001 at either 80 mg/mL or 20 mg/mL were reconstituted with 1 mL water and diluted to […] before bioassay.

[2] = pH of histidine/sucrose solutions after addition of NX001; format: physicochemical; details: 20 mM histidine
Experimental: Next, 20 mM histidine, containing 8.8% sucrose was prepared and the pH was adjusted to 5.5 with HCl. Similarly, additional solutions of 20 mM histidine containing 8.8% sucrose were prepared and the pH was adjusted to 7.5 and 9.0. These solutions were diluted 1/160 and 8 μL aliquots added to plates of BSC-1 cells. As shown in FIG. 4 (bars 2, 3, 4), the solutions were not mitogenic themselves. NX001 was dissolved in each of solution to 0.125 mg/mL.

[3] = Stability of neutral lyophilized NX001 formulation, 12 months storage; format: physicochemical
Experimental: The stability of NX001 formulations was also evaluated. The stability of a lot of NX001 was monitored for 12 months at storage temperatures of 5° C. and 25° C. Appearance of lyophilized cake, reconstitution time, appearance of the reconstituted solution, pH, identity of the peptide, potency and purity of the peptide, and residual moisture were evaluated.
The evaluated parameters of neutral formulations of NX001 were not changed following 12 months storage at temperatures of 5° C. and 25° C.

[4] = 5° C., After 12 months of storage
[5] = 25° C., After 12 months of storage

Compound: N[C@@H](Cc1c[nH]cn1)C(=O)O [histidine]
- mitogenic activity of excipient without NX001 [1]: did not exhibit mitogenic activity

Compound: OC[C@H]1O[C@@](CO)(O[C@H]2O[C@H](CO)[C@@H](O)[C@H](O)[C@H]2O)[C@@H](O)[C@@H]1O [sucrose]
- mitogenic activity of excipient without NX001 [1]: did not exhibit mitogenic activity

Compound: AQPYPQGNHEASYG [NX001, growth factor peptide designated NX001; PPL-WGF codes are lots of it]
- cell growth ([1]; NX001 0.2 μg/mL added separately from histidine/sucrose solutions of pH 5.5, 7.5, 9.0, FIG. 4 bars 8, 9, 10): increased cell growth to the same extent as the positive control alone
- growth-promoting activity ([1]; NX001 0.2 μg/ml in the presence of 20 mM histidine (pH 5.5) alone, FIG. 3B): abolished
- increase in cell number ([1]; NX001 0.2 μg/ml in the presence of 8.8% sucrose, FIG. 3B): 23%
- growth-promoting activity ([1]; NX001 0.2 μg/ml in the presence of histidine plus sucrose, FIG. 3B): abolished
- increase in cell number ([1]; NX001 alone, 0.2 μg/ml, FIG. 3B): 36%
- increase in growth of BSC-1 cells ([1]; NX001 dissolved and diluted in water, 0.125 μg/mL, FIG. 5 bar 3): 24%
- mitogenicity ([1]; NX001 dissolved in 20 mM histidine, 8.8% sucrose, resulting pH <5.0, ~5.5, ~6.5, not neutralized, FIG. 4 bars 5, 6, 7): not mitogenic
- increase in cell number ([1]; NX001 dissolved in PBS and diluted in water, 0.125 μg/mL, FIG. 5 bar 4): increased cell number by the same amount
- mitogenic activity ([1]; NX001 dissolved in histidine/sucrose (final pH 5.5), diluted in water, FIG. 5 bar 5): inactive
- increase in cell number ([1]; NX001 dissolved in histidine/sucrose and diluted in PBS (pH 7.25), FIG. 5 bar 7): > 24%
- mitogenic activity ([1]; NX001 dissolved in histidine/sucrose, neutralized with NaOH to pH 7.5, diluted in water, FIG. 5 bar 6): active
- mitogenicity ([1]; NX001 in 20 mM histidine, 8.8% sucrose neutralized with NaOH to pH 7.5 before dilution in water, FIG. 4 bars 11, 12, 13): mitogenic to the same extent as the positive control
- mitogenicity ([1]; formulated at 20 mg/mL in 20 mM histidine, 254 mM sucrose, pH 6.5, lyophilized, reconstituted with water, 0.05 to 0.4 μg/mL, FIG. 2): not mitogenic
- mitogenic activity ([1]; lot PPL-WGF0501A dissolved in 20 mM histidine, 200 mM sucrose, pH 7.25 immediately before assay, FIG. 6 open circles): active
- increase in cell number ([1]; lot PPL-WGF0501A dissolved in PBS immediately before assay, FIG. 6 closed circles): ~30%
- maximal mitogenic response ([1]; unformulated NX001 peptide lots, BSC-1 cells, FIG. 1): ~26%
- pH of solution after dissolving NX001 ([2]; 8.8% sucrose adjusted to pH 5.5 before NX001): < 5.0
- pH of solution after dissolving NX001 ([2]; 8.8% sucrose adjusted to pH 7.5 before NX001): ~5.5
- pH of solution after dissolving NX001 ([2]; 8.8% sucrose adjusted to pH 9.0 before NX001): ~6.5
- Cake appearance [3, 4]: White cake
- Potency (% of NX001 recovered in main peak compared to stated vial concentration) [3, 4]: 99.6%
- Purity [3, 4]: 98.8%
- Reconstituted appearance [3, 4]: Clear, colorless
- Reconstitution time [3, 4]: 64 s
- Residual moisture [3, 4]: 0.80%
- Total % impurities [3, 4]: 1.2%
- pH [3, 4]: 7.2
- Cake appearance ([3]; 5° C., Initial): White cake
- Potency (% of NX001 recovered in main peak compared to stated vial concentration) ([3]; 5° C., Initial): 102%
- Purity ([3]; 5° C., Initial): 98.8%
- Reconstituted appearance ([3]; 5° C., Initial): Clear, colorless
- Reconstitution time ([3]; 5° C., Initial): 45 s
- Residual moisture ([3]; 5° C., Initial): 0.71%
- Total % impurities ([3]; 5° C., Initial): 1.2%
- pH ([3]; 5° C., Initial): 7.2
- Cake appearance [3, 5]: White cake
- Potency (% of NX001 recovered in main peak compared to stated vial concentration) [3, 5]: 97.9%
- Purity [3, 5]: 98.4%
- Reconstituted appearance [3, 5]: Clear, colorless
- Reconstitution time [3, 5]: 72 s
- Residual moisture [3, 5]: 1.05%
- Total % impurities [3, 5]: 1.6%
- pH [3, 5]: 7.3
- Cake appearance ([3]; 25° C., Initial): White cake
- Potency (% of NX001 recovered in main peak compared to stated vial concentration) ([3]; 25° C., Initial): 102%
- Purity ([3]; 25° C., Initial): 98.8%
- Reconstituted appearance ([3]; 25° C., Initial): Clear, colorless
- Reconstitution time ([3]; 25° C., Initial): 45 s
- Residual moisture ([3]; 25° C., Initial): 0.71%
- Total % impurities ([3]; 25° C., Initial): 1.2%
- pH ([3]; 25° C., Initial): 7.2

Compound: gly-tyr-glu-ser-pro-ala-his-gly-tyr-gln-ala-pro-asn-gln (GYESPAHGYQAPNQ) [Scrambled NX001 peptide, 14-amino acid peptide including the same amino acids as NX001, but in scrambled order, reference compound]
- promotion of cell growth ([1]; FIG. 6 closed squares): did not promote cell growth

From patent US20140287995A1, “STABLE PHARMACEUTICAL FORMULATIONS OF GROWTH FACTOR PEPTIDES” (THE UNIVERSITY OF CHICAGO, priority 2011, published 2014)
